Read-outs that look alike come from different tables or passages of the source. Where a SMILES comes first, the peptide text is derived from it. The star is where a group is joined. X1 = COc1cc2c3cc1OCCOc1cc4c(cc1OC)Cc1cc5c(OC)cc1Cc1cc(c(OCc6cn(CCOCCOCCOCCOCCOCCOCCOCCOCCNC(=O)COCC(=O)*)nn6)cc1C4)OCCOc1cc(c(cc1OC)Cc1cc(c(OC)cc1C3)OCCO5)C2
Key:
[1] = background statement of the introduction, no reference given; cited from earlier work
Water solubility = assay type: physicochemical
HEK cells = conditions: over a similar range of concentrations; cited from earlier work

COc1cc2c3cc1OCCOc1cc4c(cc1OC)Cc1cc5c(OC)cc1Cc1cc(c(OC)cc1C4)OCCOc1cc(c(cc1OC)C3)Cc1cc(OC)c(cc1C2)OCCO5 [Cryptophane-A]
water solubility (in words) [1]: poor (low micromolar)

COc1cc2c3cc1OCCOc1cc4c(cc1OC)Cc1cc5c(OC)cc1Cc1cc(c(OCc6cn(CCOCCOCCOCCOCCOCCOCCOCCOCCNC(=O)COCC(=O)N[C@@H](CS)C(=O)N[C@@H](CCCNC(=N)N)C(=O)NCC(=O)N[C@@H](CC(=O)O)C(=O)N[C@@H](CCCNC(=N)N)C(=O)NCC(=O)N[C@@H](CC(=O)O)C(=O)N[C@@H](CCCNC(=N)N)C(=O)NCC(=O)N[C@@H](CC(=O)O)C(=O)N[C@@H](CCCNC(=N)N)C(=O)NCC(=O)N[C@@H](CC(=O)O)C(=O)O)nn6)cc1C4)OCCOc1cc(c(cc1OC)Cc1cc(c(OC)cc1C3)OCCO5)C2 [III] (X1-CRGDRGDRGDRGD-OH; C-terminus assumed)
water solubility (in words) (Water solubility): limited solubility

c12c3c4c5c1c1c6c7c2c2c8c3c3c9c4c4c%10c5c5c1c1c6c6c%11c7c2c2c7c8c3c3c8c9c4c4c9c%10c5c5c1c1c6c6c%11c2c2c7c3c3c8c4c4c9c5c1c1c6c2c3c41 [fullerene C60]
decrease in viability of HEK cells (HEK cells): 10-50%

Reference: PMC2645951 (Bioconjugate chemistry, 2008)
